Data on 27 compounds can be found in patent US20240199546A1, “INHIBITORS OF SOLUTE CARRIER FAMILY 6A MEMBER 19 (SLC6A19) AND METHODS OF USE THEREOF” (Maze Therapeutics, Inc., priority 2022, published 2024).

A value given as a limit tells only on which side of the number the result lay.

What is called IC50 is the concentration that gives 50% inhibition.

This test addresses T1, human SLC6A19 and TMEM27 (Homo sapiens, UniProt Q695T7).
T1 construct: expressed in transfected cells
T1 sequence (Q695T7 1-634): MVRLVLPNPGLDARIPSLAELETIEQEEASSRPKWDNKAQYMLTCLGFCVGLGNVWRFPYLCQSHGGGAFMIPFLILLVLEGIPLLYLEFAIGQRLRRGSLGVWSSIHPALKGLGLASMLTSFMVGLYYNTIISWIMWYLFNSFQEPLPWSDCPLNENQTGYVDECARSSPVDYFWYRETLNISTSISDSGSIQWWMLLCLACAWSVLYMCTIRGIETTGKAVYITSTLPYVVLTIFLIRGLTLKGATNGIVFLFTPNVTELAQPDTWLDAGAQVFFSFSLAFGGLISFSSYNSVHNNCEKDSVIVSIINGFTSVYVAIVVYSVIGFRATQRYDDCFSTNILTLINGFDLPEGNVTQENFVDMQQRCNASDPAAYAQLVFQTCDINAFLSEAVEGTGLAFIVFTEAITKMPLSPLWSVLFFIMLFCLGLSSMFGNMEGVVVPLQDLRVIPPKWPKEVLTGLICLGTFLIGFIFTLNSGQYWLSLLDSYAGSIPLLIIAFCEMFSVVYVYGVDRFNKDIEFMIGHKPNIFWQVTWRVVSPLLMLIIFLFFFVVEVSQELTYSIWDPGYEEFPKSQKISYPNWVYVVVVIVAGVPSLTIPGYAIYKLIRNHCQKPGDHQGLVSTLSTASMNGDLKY
T1 sequence (Q9HBJ8 15-222 partner): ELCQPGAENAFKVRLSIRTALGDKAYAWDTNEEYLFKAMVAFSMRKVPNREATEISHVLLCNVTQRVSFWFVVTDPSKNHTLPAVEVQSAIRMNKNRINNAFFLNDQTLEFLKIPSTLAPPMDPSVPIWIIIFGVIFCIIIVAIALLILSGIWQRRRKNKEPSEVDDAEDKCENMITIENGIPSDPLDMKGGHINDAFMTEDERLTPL
Nature of the test: Radiolabelled (3H) leucine uptake in CHO cells with doxycycline-inducible expression of human SLC6A19 and TMEM27 (Example B-1). Conditions: CHO cells with doxycycline-inducible expression of human SLC6A19 and TMEM27, read-out: SLC6A19_Radioligand Uptake Assay IC50. The test is classed as cell-based. On the procedure: The flasks were then incubated (humidified, 37° C. with 5% CO2) for 2 minutes. After incubation, 10 mL of pre-warmed cell culture media was added to each flask. The cell suspension was collected and centrifuged for 5 minutes at 200×g. The supernatant was aspirated and the pellet was resuspended in 5 mL pre-warmed cell culture media. The resuspended cells were counted using the Countess Cell Counting Chamber (Invitrogen) and the cell concentration of the suspension was readjusted to 1 million live cells/mL using pre-warmed cell culture media. […] Assay plates were then incubated (humidified, 37° C. with 5% CO2) for 18 hours. After incubation, the media was aspirated and the wells were washed 4 times with pre-warmed HBSS (Sigma-Aldrich, H8264-1L) using an Apricot S-Pipette S2 (Apricot Designs), such that 5 uL/well HBSS was remaining at the end of each wash. […] At this step, the final in-well DMSO concentration in the assay plate is 0.5%. All compounds were plated in a duplicate 8-point dilution series that consisted of 3-fold dilutions. The plates were incubated with compound (humidified, 37° C. with 5% CO2) for 1 hour. […] The plates were then incubated (humidified, 37° C. with 5% CO2) on a plate shaker at 200 rpm for 2 hours. After incubation, the plates were removed from the shaker and kept at room temperature for 15 minutes. Liquid scintillation analysis was performed using the MicroBeta2 Microplate Counter (Perkin Elmer). Activity (%) was derived by normalizing the average of positive control compound treated wells to 0% and the average of DMSO (negative control) wells to 100%. Collaborative Drug Discovery software was used for graphing data.
As to `O=C(NCc1cc2cc(F)c(OCc3ccon3)cc2[nH]1)C1CC1` [Compound 140, N-((5-fluoro-6-(isoxazol-3-ylmethoxy)-1H-indol-2-yl)methyl)cyclopropanecarboxamide], the IC50 came out at 148 nM.
As for `Cc1cc(COc2cc3[nH]c(CNC(=O)N4CCC(C(F)F)C4)cc3cc2Cl)on1` (stereo not drawn) [Compound 377, N-((5-chloro-6-((3-methylisoxazol-5-yl)methoxy)-1H-indol-2-yl)methyl)-3-(difluoromethyl)pyrrolidine-1-carboxamide], the IC50 came out at 847 nM.
`CC1(C(=O)NCc2cc3c(F)c(Cl)c(OCc4ccon4)cc3[nH]2)CC1` [Compound 15, N-((5-chloro-4-fluoro-6-(isoxazol-3-ylmethoxy)-1H-indol-2-yl)methyl)-1-methylcyclopropane-1-carboxamide]: the IC50 was 363 nM.
The value for `Cc1cc(COc2cc3[nH]c(CNC(=O)N4CCC4C#N)cc3cc2Cl)on1` (stereo not drawn) [Compound 376, N-((5-chloro-6-((3-methylisoxazol-5-yl)methoxy)-1H-indol-2-yl)methyl)-2-cyanoazetidine-1-carboxamide] was 2120 nM.
The value for `CC1(C(=O)NCc2cc3ccc(OCCC45CC(C4)C5)cc3[nH]2)CC1` [Compound 193, N-((6-(2-(bicyclo[1.1.1]pentan-1-yl)ethoxy)-1H-indol-2-yl)methyl)-1-methylcyclopropane-1-carboxamide] was 9880 nM.
In the case of `O=C(CC(F)F)NCc1cc2cc(Cl)c(OCc3cscn3)cc2[nH]1` [Compound 513, N-((5-chloro-6-(thiazol-4-ylmethoxy)-1H-indol-2-yl)methyl)-3,3-difluoropropanamide], the IC50 worked out at 86.2 nM.
With `Cc1cc(COc2cc3[nH]c(CNC(=O)Cn4ccnn4)cc3cc2Cl)on1` [Compound 520, N-((5-chloro-6-((3-methylisoxazol-5-yl)methoxy)-1H-indol-2-yl)methyl)-2-(1H-1,2,3-triazol-1-yl)acetamide], the IC50 was 6730 nM.
The value for `CC1(C(=O)NCc2cc3cc(CC#N)c(OCc4ccon4)cc3[nH]2)CC1` [Compound 644, N-((5-(cyanomethyl)-6-(isoxazol-3-ylmethoxy)-1H-indol-2-yl)methyl)-1-methylcyclopropane-1-carboxamide] was 583 nM.
On to `CC1(C(=O)NCc2cc3cc(OC(F)(F)F)c(OCc4cocn4)cc3[nH]2)CC1` [Compound 439, 1-methyl-N-((6-(oxazol-4-ylmethoxy)-5-(trifluoromethoxy)-1H-indol-2-yl)methyl)cyclopropane-1-carboxamide], for which the IC50 amounted to 327 nM.
`COc1cc2cc(CNC(=O)C3(C)CC3)[nH]c2cc1CCn1ccnn1` [Compound 588, N-((6-(2-(1H-1,2,3-triazol-1-yl)ethyl)-5-methoxy-1H-indol-2-yl)methyl)-1-methylcyclopropane-1-carboxamide]: the IC50 was determined as 3670 nM.
On to `O=C(NCc1cc2cc(Cl)c(OCc3cscn3)cc2[nH]1)C1COC1` [Compound 261, N-((5-chloro-6-(thiazol-4-ylmethoxy)-1H-indol-2-yl)methyl)oxetane-3-carboxamide], for which the IC50 was 105 nM.
`Cc1cc(COc2cc3[nH]c(CNC(=O)CC4(O)CC4)cc3cc2Cl)on1` [Compound 237, N-((5-chloro-6-((3-methylisoxazol-5-yl)methoxy)-1H-indol-2-yl)methyl)-2-(1-hydroxycyclopropyl)acetamide]: the IC50 is 1410 nM.
`Cc1cc(COc2cc3[nH]c(CNC(=O)[C@H](C)CO)cc3cc2Cl)on1` [Compound 536, (R)-N-((5-chloro-6-((3-methylisoxazol-5-yl)methoxy)-1H-indol-2-yl)methyl)-3-hydroxy-2-methylpropanamide]: the IC50 was found to be 1360 nM.
Turning to `O=C(NCc1cc2cc(F)c(OCc3cocn3)cc2[nH]1)N1CCCC1` [Compound 115, N-((5-fluoro-6-(oxazol-4-ylmethoxy)-1H-indol-2-yl)methyl)pyrrolidine-1-carboxamide], the half-maximal inhibitory concentration (IC50) amounted to 230 nM.
Take `O=C(NCc1cc2cc(Cl)c(OCc3cscn3)cc2[nH]1)C1CCCO1` (stereo not drawn) [Compound 268, N-((5-chloro-6-(thiazol-4-ylmethoxy)-1H-indol-2-yl)methyl)tetrahydrofuran-2-carboxamide]: the IC50 is 421 nM.
On to `Cc1cc(COc2cc3[nH]c(CNC(=O)[C@@]4(C)CCCO4)cc3cc2Cl)on1` [Compound 307, (R)-N-((5-chloro-6-((3-methylisoxazol-5-yl)methoxy)-1H-indol-2-yl)methyl)-2-methyltetrahydrofuran-2-carboxamide], for which the IC50 amounted to 579 nM.
Turning to `C[C@@H]1CCN(C(=O)NCc2cc3cc(F)c(OCc4cscn4)cc3[nH]2)C1` [Compound 387, (R)-N-((5-fluoro-6-(thiazol-4-ylmethoxy)-1H-indol-2-yl)methyl)-3-methylpyrrolidine-1-carboxamide], the IC50 amounted to 209 nM.
The value for `CC(=O)NCc1cc2c(F)cc(OCc3cscn3)cc2[nH]1` [Compound 525, N-((4-fluoro-6-(thiazol-4-ylmethoxy)-1H-indol-2-yl)methyl)acetamide] was 157 nM; that for `Cc1cc(COc2cc3[nH]c(CNC(=O)C4(C#N)CCC4)cc3cc2Cl)on1` [Compound 487, N-((5-chloro-6-((3-methylisoxazol-5-yl)methoxy)-1H-indol-2-yl)methyl)-1-cyanocyclobutane-1-carboxamide] was 367 nM; that for `CC(C)OC(=O)NCc1cc2cc(Cl)c(OCc3cscn3)cc2[nH]1` [Compound 623, isopropyl ((5-chloro-6-(thiazol-4-ylmethoxy)-1H-indol-2-yl)methyl)carbamate] was 532 nM.
The value for `CC1(C(=O)NCc2cc3cc(CCC#N)c(OCc4ccon4)cc3[nH]2)CC1` [Compound 642, N-((5-(2-cyanoethyl)-6-(isoxazol-3-ylmethoxy)-1H-indol-2-yl)methyl)-1-methylcyclopropane-1-carboxamide] was 2740 nM.
In the case of `Cc1cc(COc2cc3[nH]c(CNC(=O)[C@H]4C[C@@H]5CC[C@H]4O5)cc3cc2Cl)on1` (racemic) [Compound 297, (1R,2S,4S)-N-((5-chloro-6-((3-methylisoxazol-5-yl)methoxy)-1H-indol-2-yl)methyl)-7-oxabicyclo[2.2.1]heptane-2-carboxamide and (1S,2R,4R)-N-((5-chloro-6-((3-methylisoxazol-5-yl)methoxy)-1H-indol-2-yl)methyl)-7-oxabicyclo[2.2.1]heptane-2-carboxamide], the IC50 is 1020 nM.
Consider `O=C(NCc1cc2cc(Cl)c(OCc3cscn3)cc2[nH]1)C1CC2(CCC2)C1` [Compound 557, N-((5-chloro-6-(thiazol-4-ylmethoxy)-1H-indol-2-yl)methyl)spiro[3.3]heptane-2-carboxamide], for which the IC50 was greater than 8240 nM.
Consider `Cc1c(CNC(=O)N2CCC2)[nH]c2cc(OCc3cscn3)c(Cl)cc12` [Compound 473, N-((5-chloro-3-methyl-6-(thiazol-4-ylmethoxy)-1H-indol-2-yl)methyl)azetidine-1-carboxamide], for which the IC50 amounted to 293 nM.
As to `O=C(CC(F)(F)F)NCc1cc2cc(F)c(OCc3cscn3)cc2[nH]1` [Compound 568, 3,3,3-trifluoro-N-((5-fluoro-6-(thiazol-4-ylmethoxy)-1H-indol-2-yl)methyl)propanamide], the IC50 was determined as 337 nM.
As for `[2H]C([2H])([2H])C(=O)NCc1cc2cc(F)c(OCc3cscn3)cc2[nH]1` [Compound 566, N-((5-fluoro-6-(thiazol-4-ylmethoxy)-1H-indol-2-yl)methyl)acetamide-2,2,2-d3], the IC50 was 146 nM.
For `CN(Cc1cn[nH]c1)C(=O)NCc1cc2cc(Cl)c(OCc3cscn3)cc2[nH]1` [Compound 626, 1-((1H-pyrazol-4-yl)methyl)-3-((5-chloro-6-(thiazol-4-ylmethoxy)-1H-indol-2-yl)methyl)-1-methylurea], the IC50 was 765 nM.
